Reference: publication PMC10253456, “Investigating the Contribution of Major Drug-Metabolising Enzymes to Possum-Specific Fertility Control” (International Journal of Molecular Sciences, 2023)
Where a name gives a salt, the structure may show the parent alone. Read-outs that look alike come from different tables or passages of the source.

Assays:
[1] = tested on: CYP3A; test: CYP3A catalytic activity (erythromycin N-demethylation) in mouse liver microsomes; conditions: for Percent control catalytic activity at estimated IC50 / Percent control catalytic activity at estimated 2-fold IC50: mouse liver microsomes, initial screen n=1; for Percent control catalytic activity at estimated IC50: compounds without reported IC50 at 1 µM; for Percent control catalytic activity at estimated 2-fold IC50: compounds without reported IC50 at 5 µM; for % of control (catalytic activity at 2-fold IC50) / Catalytic activity at 2-fold IC50 / % of control (catalytic activity at IC50): mouse; for % of control (catalytic activity at 2-fold IC50) / Catalytic activity at 2-fold IC50: compound at estimated 2-fold IC50 (5 µM where none reported); for % of control (catalytic activity at IC50): compound at estimated IC50 (1 µM where none reported)
Description: (§1) Possums were collected from the Otago Peninsula (Dunedin) and the Okuti Valley, Banks Peninsula (Christchurch) in New Zealand in collaboration with the Otago Peninsula Biodiversity Group and Manaaki Whenua-Landcare Research, respectively. […] Possums were caged and humanely killed by a blow to the head, and the livers were harvested, snap-frozen in liquid nitrogen, and stored in a freezer at −80 °C until the preparation of microsomal fractions. […] Mice were euthanised by carbon dioxide inhalation and the livers were removed and microsomes prepared. […] The livers from avian species (mallards and a swan) were kindly donated by a local bird hunting group based in Dunedin, New Zealand. The livers from avian species were treated similarly to those mentioned above for the possum samples.
(§2) Microsomal preparation was carried out as previously described [76]. […] All procedures were performed at 0–4 °C. The liver samples were minced and homogenised in Buffer A (0.1 M Tris, 0.1 M potassium chloride, 1 mM EDTA, and 20 μM butylated hydroxytoluene, at pH = 7.4) using the Teflon-glass homogeniser (5–6 vertical passes). The samples were centrifuged at 10,000× g for 20 min. The supernatant was then transferred into another set of centrifuge tubes and spun at 100,000× g for 60 min. The pellet was resuspended in Buffer B (0.1 M potassium pyrophosphate, 1 mM EDTA, and 20 μM butylated hydroxytoluene, at pH = 7.4), homogenised, and recentrifuged at 100,000× g for 60 min. Finally, the pellet was homogenised in 1–2 mL of Buffer C (10 mM Tris-HCl, 1 mM EDTA, and 4% glycerol (v/v)), and stored at −80 °C until use. The protein concentration of the microsomes was determined using the bicinchoninic acid (BCA) method [77].
(§3) CYP3A catalytic activity was determined using the erythromycin N-demethylation activity assay, as described [78]. The reaction mixture (final volume of 1 mL and final protein concentration of 1 mg) contained 500 µL of microsomes in 0.1 M phosphate buffer (pH 7.4) and 400 µL of erythromycin buffer (0.45 mM), and 50 µL of the test compound was pre-warmed at 37 °C for 2 min. The reaction was initiated with 50 µL of 2.5 mM nicotinamide adenine dinucleotide phosphate (NADP^+) and incubated for 30 min at 37 °C. […] The tubes were vortexed and left for 5 min (at room temperature), and then 330 µL of saturated barium hydroxide was added. The tubes were further vortexed and left for 5 min (at room temperature). The tubes were then centrifuged at 1800× g for 10 min. To 830 µL of the supernatant, 330 µL of Nash reagent (30% (w/v) ammonium acetate, 0.4% (v/v) acetylacetone) was added and further incubated for 30 min at 60 °C. The blank tube contained 330 µL of Nash reagent and 830 µL of Milli-Q water. […] The CYP3A activities were determined in nmol/mg/min using standard curve data. Results presented are the mean ± SEM of 3 independent experiments performed in duplicate unless otherwise stated.

[2] = tested on: CYP3A; test: CYP3A catalytic activity (erythromycin N-demethylation) in possum liver microsomes; conditions: for Percent control catalytic activity at estimated IC50 / Percent control catalytic activity at estimated 2-fold IC50: possum liver microsomes, initial screen n=1; for Percent control catalytic activity at estimated IC50: compounds without reported IC50 at 1 µM; for Percent control catalytic activity at estimated 2-fold IC50: compounds without reported IC50 at 5 µM; for % of control (catalytic activity at 2-fold IC50) / Catalytic activity at 2-fold IC50 / % of control (catalytic activity at IC50): possum; for % of control (catalytic activity at 2-fold IC50) / Catalytic activity at 2-fold IC50: compound at estimated 2-fold IC50 (5 µM where none reported); for % of control (catalytic activity at IC50): compound at estimated IC50 (1 µM where none reported)
Description: as §1, §2, §3

[3] = tested on: CYP3A; conditions: avian
Description: as §1, §2, §3

[4] = compound at estimated 2-fold IC50 (5 µM where none reported)

SMILES: CCc1ccc(CCOc2ccc(CC3SC(=O)NC3=O)cc2)nc1 (stereo not shown) [Pioglitazone HCl]
- Percent control catalytic activity at estimated IC50 [1]: 98 percent control
- Percent control catalytic activity at estimated 2-fold IC50 [1]: 100 percent control
- Percent control catalytic activity at estimated IC50 [2]: 99 percent control
- Percent control catalytic activity at estimated 2-fold IC50 [2]: 87 percent control

SMILES: c1ccc2[nH]c(-c3cscn3)nc2c1 [Thiabendazole]
- Percent control catalytic activity at estimated IC50 [1]: 85 percent control
- Percent control catalytic activity at estimated 2-fold IC50 [1]: 95 percent control
- Percent control catalytic activity at estimated IC50 [2]: 94 percent control
- Percent control catalytic activity at estimated 2-fold IC50 [2]: 92 percent control

SMILES: O=[N+]([O-])c1cn(C(c2ccccc2)(c2ccccc2)c2ccccc2)cn1 [CDD3505]
- Percent control catalytic activity at estimated IC50 [1]: 88 percent control
- Percent control catalytic activity at estimated 2-fold IC50 [1]: 89 percent control
- Percent control catalytic activity at estimated IC50 [2]: 129 percent control
- Percent control catalytic activity at estimated 2-fold IC50 [2]: 145 percent control

SMILES: CC(=O)O[C@H]1CC[C@@]2(C)C(=CC[C@@H]3[C@@H]2CC[C@]2(C)C(c4cccnc4)=CC[C@@H]32)C1 [Abiraterone Acetate]
- Percent control catalytic activity at estimated IC50 [1]: 85 percent control
- Percent control catalytic activity at estimated 2-fold IC50 [1]: 89 percent control
- Percent control catalytic activity at estimated IC50 [2]: 128 percent control
- Percent control catalytic activity at estimated 2-fold IC50 [2]: 110 percent control

SMILES: CC(C)c1cc(C(C)C)c(CC(=O)NS(=O)(=O)Oc2c(C(C)C)cccc2C(C)C)c(C(C)C)c1 [Avasimibe]
- Percent control catalytic activity at estimated IC50 [1]: 91 percent control
- Percent control catalytic activity at estimated 2-fold IC50 [1]: 92 percent control

SMILES: COc1cc2c(=O)c3c(O)c([C@@H]4O[C@H](CO[C@@H]5OC[C@](O)(CO)[C@H]5O)[C@@H](O)[C@H](O)[C@H]4O)c(O)cc3oc2cc1O [Polygalaxanthone III]
- Percent control catalytic activity at estimated IC50 [1]: 92 percent control
- Percent control catalytic activity at estimated 2-fold IC50 [1]: 94 percent control
- Percent control catalytic activity at estimated IC50 [2]: 102 percent control
- Percent control catalytic activity at estimated 2-fold IC50 [2]: 108 percent control

SMILES: C[C@@H]1O[C@@H](O[C@H]2[C@H](Oc3cc(O)c(C(=O)CCc4ccc(O)cc4)c(O)c3)O[C@H](CO)[C@@H](O)[C@@H]2O)[C@H](O)[C@H](O)[C@H]1O [Naringin Dihydrochalcone]
- Percent control catalytic activity at estimated IC50 [1]: 92 percent control
- Percent control catalytic activity at estimated 2-fold IC50 [1]: 96 percent control
- % of control (catalytic activity at 2-fold IC50) [1]: 102 % of control
- Catalytic activity at 2-fold IC50 [1]: 0.54 ± 0.07 nmol/mg/min
- % of control (catalytic activity at IC50) [1]: 97 % of control
- Percent control catalytic activity at estimated IC50 [2]: 111 percent control
- Percent control catalytic activity at estimated 2-fold IC50 [2]: 87 percent control
- % of control (catalytic activity at 2-fold IC50) [2]: 92 % of control
- Catalytic activity at 2-fold IC50 [2]: 0.33 ± 0.02 nmol/mg/min
- % of control (catalytic activity at IC50) [2]: 106 % of control

SMILES: CC(=O)c1ccccc1O [2'-Hydroxyacetophenone]
- % of control (catalytic activity at 2-fold IC50) [3, 4]: 102 % of control
- Catalytic activity at 2-fold IC50 [3, 4]: 0.36 ± 0.05 nmol/mg/min
- % of control (catalytic activity at IC50) ([3]; compound at estimated IC50 (1 µM where none reported)): 101 % of control
- Percent control catalytic activity at estimated IC50 [1]: 112 percent control
- Percent control catalytic activity at estimated 2-fold IC50 [1]: 80 percent control
- % of control (catalytic activity at 2-fold IC50) [1]: 75 % of control
- Catalytic activity at 2-fold IC50 [1]: 0.35 ± 0.05 nmol/mg/min
- % of control (catalytic activity at IC50) [1]: 129 % of control
- Percent control catalytic activity at estimated IC50 [2]: 108 percent control
- Percent control catalytic activity at estimated 2-fold IC50 [2]: 105 percent control
- % of control (catalytic activity at 2-fold IC50) [2]: 102 % of control
- Catalytic activity at 2-fold IC50 [2]: 0.29 ± 0.05 nmol/mg/min
- % of control (catalytic activity at IC50) [2]: 120 % of control

SMILES: O=C1C[C@@H](c2ccc(O)cc2)Oc2cc(O)cc(O)c21 [Naringenin]
- Percent control catalytic activity at estimated IC50 [1]: 71 percent control
- % of control (catalytic activity at 2-fold IC50) [1]: 240 % of control
- Catalytic activity at 2-fold IC50 [1]: 1.09 ± 0.04 nmol/mg/min
- Percent control catalytic activity at estimated IC50 [2]: 84 percent control
- % of control (catalytic activity at 2-fold IC50) [2]: 175 % of control
- Catalytic activity at 2-fold IC50 [2]: 0.56 ± 0.02 nmol/mg/min

SMILES: COc1c(OC)c2occc2c2oc(=O)ccc12 [Pimpinellin]
- Percent control catalytic activity at estimated IC50 [1]: 171 percent control
- Percent control catalytic activity at estimated IC50 [2]: 133 percent control

SMILES: Cc1ccc(-c2c(-c3nn(C)c4ncnc(N5CC[C@H](N6CCCCC6)C5)c34)cnn2C)cc1 [PF-4981517]
- Percent control catalytic activity at estimated IC50 [1]: 101 percent control
- Percent control catalytic activity at estimated 2-fold IC50 [1]: 110 percent control
- Percent control catalytic activity at estimated IC50 [2]: 98 percent control
- Percent control catalytic activity at estimated 2-fold IC50 [2]: 108 percent control

SMILES: O=c1cc(-c2ccc(O)cc2)oc2cc(O)cc(O)c12 [Apigenin]
- Percent control catalytic activity at estimated IC50 [1]: 116 percent control
- Percent control catalytic activity at estimated 2-fold IC50 [1]: 106 percent control
- Percent control catalytic activity at estimated IC50 [2]: 94 percent control
- Percent control catalytic activity at estimated 2-fold IC50 [2]: 121 percent control

SMILES: O=C(O)/C=C/c1ccc(Cn2ccnc2)cc1 [Ozagrel]
- Percent control catalytic activity at estimated IC50 [1]: 93 percent control
- Percent control catalytic activity at estimated 2-fold IC50 [1]: 92 percent control
- Percent control catalytic activity at estimated IC50 [2]: 97 percent control
- Percent control catalytic activity at estimated 2-fold IC50 [2]: 109 percent control

SMILES: Cl.O=C(O)/C=C/c1ccc(Cn2ccnc2)cc1 [Ozagrel HCl]
- Percent control catalytic activity at estimated IC50 [1]: 92 percent control
- Percent control catalytic activity at estimated 2-fold IC50 [1]: 85 percent control
- Percent control catalytic activity at estimated IC50 [2]: 121 percent control
- Percent control catalytic activity at estimated 2-fold IC50 [2]: 95 percent control

SMILES: CC(C)(C)C(O)/C=C/c1ccc2c(c1)OCO2 (stereo not shown) [Stiripentol]
- Percent control catalytic activity at estimated IC50 [1]: 119 percent control
- Percent control catalytic activity at estimated 2-fold IC50 [1]: 102 percent control
- Percent control catalytic activity at estimated IC50 [2]: 109 percent control
- Percent control catalytic activity at estimated 2-fold IC50 [2]: 105 percent control

SMILES: CC(C)(C)C(O)/C(=C\c1ccc(Cl)cc1)n1cncn1 (stereo not shown) [Uniconazole]
- Percent control catalytic activity at estimated IC50 [1]: 67 percent control
- Percent control catalytic activity at estimated 2-fold IC50 [1]: 40 percent control
- Percent control catalytic activity at estimated IC50 [2]: 82 percent control
- Percent control catalytic activity at estimated 2-fold IC50 [2]: 84 percent control

SMILES: O=C1c2ccc(O)cc2C(=O)c2ccc(O)cc21 [2,6-Dihydroxyanthraquinone]
- Percent control catalytic activity at estimated IC50 [1]: 106 percent control
- Percent control catalytic activity at estimated 2-fold IC50 [1]: 128 percent control
- Percent control catalytic activity at estimated IC50 [2]: 97 percent control
- Percent control catalytic activity at estimated 2-fold IC50 [2]: 102 percent control

SMILES: COc1cc2c(cc1OC)[C@@H](Cc1ccc(Oc3cc(C[C@@H]4c5cc(OC)c(OC)cc5CCN4C)ccc3O)cc1)N(C)CC2 [Dauricine]
- Percent control catalytic activity at estimated IC50 [1]: 113 percent control
- Percent control catalytic activity at estimated 2-fold IC50 [1]: 112 percent control
- Percent control catalytic activity at estimated IC50 [2]: 108 percent control
- Percent control catalytic activity at estimated 2-fold IC50 [2]: 117 percent control

SMILES: CC12CC3CC(C)(C1)CC(N)(C3)C2 [Memantine HCl]
- Percent control catalytic activity at estimated IC50 [1]: 104 percent control
- Percent control catalytic activity at estimated 2-fold IC50 [1]: 98 percent control
- Percent control catalytic activity at estimated IC50 [2]: 117 percent control
- Percent control catalytic activity at estimated 2-fold IC50 [2]: 109 percent control

SMILES: CC[C@@H]([C@H](C)O)n1ncn(-c2ccc(N3CCN(c4ccc(OC[C@@H]5CO[C@@](Cn6cncn6)(c6ccc(F)cc6F)C5)cc4)CC3)cc2)c1=O [Posaconazole]
- Percent control catalytic activity at estimated IC50 [1]: 101 percent control
- Percent control catalytic activity at estimated 2-fold IC50 [1]: 74 percent control
- Percent control catalytic activity at estimated IC50 [2]: 93 percent control
- Percent control catalytic activity at estimated 2-fold IC50 [2]: 92 percent control

SMILES: O=C(O)[C@H](O)Cc1ccc(O)c(O)c1 [Danshensu]
- Percent control catalytic activity at estimated IC50 [1]: 97 percent control
- Percent control catalytic activity at estimated IC50 [2]: 113 percent control

SMILES: O=C(O)c1ccc(-n2nc(-c3ccccc3O)nc2-c2ccccc2O)cc1 [Deferasirox]
- Percent control catalytic activity at estimated IC50 [1]: 87 percent control
- Percent control catalytic activity at estimated IC50 [2]: 93 percent control

SMILES: C=CCSCC=C [Diallyl sulfide]
- Percent control catalytic activity at estimated IC50 [1]: 72 percent control
- Percent control catalytic activity at estimated 2-fold IC50 [1]: 84 percent control
- Percent control catalytic activity at estimated IC50 [2]: 103 percent control
- Percent control catalytic activity at estimated 2-fold IC50 [2]: 96 percent control

SMILES: O=C([O-])C(O)Cc1ccc(O)c(O)c1.[Na+] (stereo not shown) [Sodium Danshensu]
- Percent control catalytic activity at estimated IC50 [1]: 98 percent control
- Percent control catalytic activity at estimated 2-fold IC50 [1]: 107 percent control
- Percent control catalytic activity at estimated IC50 [2]: 116 percent control
- Percent control catalytic activity at estimated 2-fold IC50 [2]: 118 percent control

SMILES: O=c1c(O)c(-c2ccccc2)oc2cc(O)cc(O)c12 [Galangin]
- Percent control catalytic activity at estimated IC50 [1]: 131 percent control
- Percent control catalytic activity at estimated 2-fold IC50 [1]: 123 percent control
- Percent control catalytic activity at estimated IC50 [2]: 115 percent control
- Percent control catalytic activity at estimated 2-fold IC50 [2]: 103 percent control
